Values of other authors in patent US20080112943A1, “Biosynthetic Polypeptide Fusion Inhibitors” (priority 2005, published 2008).

What was measured:
[1] = tested on: monocytes and neutrophils
[2] = in vitro studies and in animals
[3] = target: T1, N-formyl peptide receptor (Homo sapiens, UniProt P21462); details: human phagocytes
T1 construct: host or cells: human phagocytes (endogenous receptor)
T1 sequence (P21462 1-350): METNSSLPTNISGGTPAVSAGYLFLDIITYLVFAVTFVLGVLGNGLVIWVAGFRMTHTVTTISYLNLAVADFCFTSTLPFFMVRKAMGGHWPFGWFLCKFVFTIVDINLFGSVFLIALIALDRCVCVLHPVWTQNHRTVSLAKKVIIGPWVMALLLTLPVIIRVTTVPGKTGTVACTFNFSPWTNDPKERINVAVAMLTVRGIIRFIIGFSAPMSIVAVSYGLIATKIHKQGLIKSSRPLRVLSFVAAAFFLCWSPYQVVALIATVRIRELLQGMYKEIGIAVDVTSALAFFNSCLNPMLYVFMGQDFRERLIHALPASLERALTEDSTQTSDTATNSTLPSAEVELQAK

For enfuvirtide, the “inhibition of HIV-1 mediated CD-4+ cell-cell fusion (i.e., syncytial formation) and infection of CD-4+ cells by cell-free virus” value (HIV-1) is given as “potent inhibitor”, the “chemoattractant and activator of monocytes and neutrophils” value [1] is given as “chemoattractant and activator” and the toxicity [2] is given as “non-toxic”. For the same substance, the “activation of the N-formyl peptide receptor” value [3] was “activates”.
